Data as given in patent US6011174A, “Cyclic amic acid derivatives” (Banyu Pharmaceutical Co., Ltd., priority 1996, dated 2000).

Key:
[1] = system: farnesyl-modification of Ras protein in NIH3T3 cells transformed by activated ras gene; experiment: Inhibitory activities against farnesyl-modification of Ras protein in NIH3T3 cells transformed by activated ras gene; assay type: cell-based; details: Mus musculus, 24 hours, read-out: 50% inhibitory concentrations against farnesyl-modification of Ras protein, IC50
Method: Using the compounds of the present invention, inhibitory activities against farnesyl-modification of Ras protein in NIH3T3 cells transformed by activated ras gene, were measured.
The NIH3T3 cells transformed by activated ras gene, were seeded on a culture plate and cultured for 3 days. Then, a compound of the preset invention in a predetermined concentration was added to the culture. In accordance with the method disclosed in J. Biol. Chem., vol. […] The cell extract was subjected to SDS polyacrylamide gel electrophoresis to separate farnesyl-modified Ras protein and non-farnesyl-modified Ras protein. The protein on the gel was transferred onto a nitrocellulose membrane, and an anti-Ras protein antibody was reacted as a probe (primary antibody reaction). An anti-primary antibody, a peroxidase inclusion (secondary antibody), was reacted, and then Ras protein was detected by a chemical fluorescence enhancing kit. The proportion of non-farnesyl-modified Ras protein was quantified by a densitometer and taken as the inhibitory activity.

[2] = target: T1, protein-farnesyl transferase (PFT) (Rattus norvegicus, UniProt Q02293+Q04631); experiment: Inhibitory activities against protein-farnesyl transferase (PFT); assay type: biochemical; details: PFT from rat brain; prenyl acceptor H-ras protein or biotin-added Lys-Thr-Ser-Cys-Val-Ile-Met; 37° C., 20 minutes; read-out: 50% inhibitory concentrations against PFT activities, IC50
T1 construct: soluble fraction of rat's brain; from tissue; host or cells: rat brain, soluble fraction, 30%-50% ammonium sulfate cut, Q-Sepharose fraction

[3] = system: NIH3T3 Cells Transformed by Activated Ras Gene (NIH/ras); experiment: Antitumor effect against NIH/ras cells in nude mice, intraperitoneal (tumor weight); assay type: in vivo, nude mouse; details: for Growth inhibition (tumor weight): once a day days 1-6, day 7; for Weight of tumor, Average ± standard deviation: once a day days 1-6, weighed day 7
Source text: Pharmacological Test Example 3 (Therapeutic Effects to NIH3T3 Cells Transformed by Activated Ras Gene (NIH/ras))
(§1) ^1) Tumor inoculation: 10^6 cells were inoculated subcutaneously
(§2) to a female nude mouse.
^2) Dose: Each dose was intraperitonealy administered once a day from
the first day to the sixth day after the inoculation of the cells,.
^3) Weight of tumor: On the seventh day after inoculation of the
cells, the tumors were weighed.
^4) Growth inhibition: (1(average weight of tumor of the treated
group/average weight of tumor of the control group)) × 100
* and **: Statistical analyses by utest are 5% and 1%, respectively.

[4] = system: NIH3T3 Cells Transformed by Activated Ras Gene (NIH/ras); experiment: Antitumor effect against NIH/ras cells in nude mice, subcutaneous (tumor volume); assay type: in vivo, nude mouse; details: for Growth inhibition (tumor volume): once a day days 1-10, day 8; for Volume of tumor, Average ± standard deviation: once a day days 1-10, measured day 8, ** 1% (u test)
Method: as §1, §2
^2 Dose: Each dose was subcutaneously administered once a day from th
first day to the tenth day after the inoculation of the cells.
^3) Volume of tumor: On the eighth day after inoculation of the cells
volume of the tumors were measured.
^4) Growth inhibition: (1(average volume of tumor of the treated
group/average volume of tumor of the control group)) × 100

[5] = 10 mg/kg/injection subcutaneous
[6] = 20 mg/kg/injection subcutaneous
[7] = 40 mg/kg/injection subcutaneous

| SMILES | IC50 [1] [nM] | IC50 [2] [nM] | other results |
| --- | --- | --- | --- |
| C[C@H]([C@H](CCc1ccccc1)c1ccc(Oc2ccccc2)cc1)N(CC(=O)O)C(=O)[C@@H]1OC(C(=O)O)(C(=O)O)O[C@@H]1C(=O)O (relative stereo) [Example 23 (4R*, 5S*)-isomer, (4R*,5S*)-4-[N-(carboxymethyl)-N-{(1R,2R)-1-methyl-2-(4-phenoxyphenyl)-4-phenylbutyl}carbamoyl]-1,3-dioxolane-2,2,5-tricarboxylic acid] | 2100 | 0.085 | – |
| CC(C(CCc1ccccc1)c1ccc(Oc2ccccc2)c(O)c1)N(CC(=O)O)C(=O)[C@@H]1COC(C(=O)O)(C(=O)O)O1 (single isomer, unassigned) [Example 32] | 590 | 0.2 | – |
| C[C@H]([C@H](CCc1ccccc1)c1ccc(Oc2ccccc2)cc1)N(CC(=O)O)C(=O)[C@@H]1COC(C(=O)O)(C(=O)O)O1 [Example 9, (4S)-4-[N-(carboxymethyl)-N-{(1R,2R)-1-methyl-2-(4-phenoxyphenyl)-4-phenylbutyl}carbamoyl]-1,3-dioxolane-2,2-dicarboxylic acid] | 240 | 0.16 | Growth inhibition (tumor weight) ([3]; 20 mg/kg/injection intraperitoneal): 67%; Weight of tumor, Average ± standard deviation ([3]; 20 mg/kg/injection intraperitoneal, * 5% (u test)): 0.024 ± 0.018 g; Growth inhibition (tumor weight) ([3]; 40 mg/kg/injection intraperitoneal): 80%; Weight of tumor, Average ± standard deviation ([3]; 40 mg/kg/injection intraperitoneal, ** 1% (u test)): 0.015 ± 0.013 g; Growth inhibition (tumor weight) ([3]; 80 mg/kg/injection intraperitoneal): 90%; Weight of tumor, Average ± standard deviation ([3]; 80 mg/kg/injection intraperitoneal, ** 1% (u test)): 0.008 ± 0.006 g; Growth inhibition (tumor weight) ([3]; 160 mg/kg/injection intraperitoneal): 98%; Weight of tumor, Average ± standard deviation ([3]; 160 mg/kg/injection intraperitoneal, ** 1% (u test)): 0.002 ± 0.001 g |
| C[C@H]([C@H](CCc1ccccc1)c1ccc(Oc2ccccc2)cc1)N(CC(=O)O)C(=O)[C@H]1OC(C(=O)O)(C(=O)O)O[C@@H]1C(=O)O [Example 22, (4S,5S)-4-[N-(carboxymethyl)-N-{(1R,2R)-1-methyl-2-(4-phenoxyphenyl)-4-phenylbutyl}carbamoyl]-1,3-dioxolane-2,2,5-tricarboxylic acid] | 1900 | 0.095 | Growth inhibition (tumor volume) [4, 5]: 75%; Volume of tumor, Average ± standard deviation [4, 5]: 0.164 ± 0.073 cm^3; Growth inhibition (tumor volume) [4, 6]: 92%; Volume of tumor, Average ± standard deviation [4, 6]: 0.052 ± 0.030 cm^3; Growth inhibition (tumor volume) [4, 7]: 99%; Volume of tumor, Average ± standard deviation [4, 7]: 0.010 ± 0.009 cm^3 |
| C[C@H]([C@H](CCc1ccccc1)c1ccc(Oc2ccccc2)cc1)N(CC(=O)O)C(=O)[C@H]1OC(C(=O)O)(C(=O)O)O[C@H]1C(=O)O (relative stereo) [Example 23 (4S*, 5R*)-isomer, (4S*,5R*)-4-[N-(carboxymethyl)-N-{(1R,2R)-1-methyl-2-(4-phenoxyphenyl)-4-phenylbutyl}carbamoyl]-1,3-dioxolane-2,2,5-tricarboxylic acid] | 2000 | 0.075 | – |
| COc1cc(C(CCc2ccccc2)C(C)N(CC(=O)O)C(=O)[C@@H]2COC(C(=O)O)(C(=O)O)O2)ccc1Oc1ccccc1 (single isomer, unassigned) [Example 31] | 550 | 0.22 | – |
| C[C@H]([C@H](CCc1ccccc1)c1ccc(Oc2ccccc2)cc1)N(CC(=O)O)C(=O)[C@@H]1OC(C(=O)O)(C(=O)O)O[C@H]1C(=O)O [Example 21, (4R,5R)-4-[N-(carboxymethyl)-N-{(1R,2R)-1-methyl-2-(4-phenoxyphenyl)-4-phenylbutyl}carbamoyl]-1,3-dioxolane-2,2,5-tricarboxylic acid] | 2100 | 0.098 | – |
